Converted amounts (≈) assume the structure as drawn. “Also recorded” adds a separate entry of the source.
Key:
[1] = system: Oral Cavity and Pharynx; experiment: Sensory qualities of compounds in syrup applied to base of tongue of volunteers; assay type: in vivo, human; settings: for duration of unpleasant tastes: metallic, organic solvent-like, harsh
Procedure: The DIPA compounds was 5 mg/mL in cherry-flavored syrup in a volume of 0.8 mL per dose. The sensory effect were recorded every 5 min for 1 hr.
Tests were on four volunteers, with 3 to 5 trials per substance. Compounds were prepared in cherry-flavored syrup at 5 mg/mL and administered ˜0.8 mL per dose with a 2 mL plastic vial to the base of the tongue. The subjects asked to rate the sensations for cooling intensity, cold discomfort and adverse taste.
The concentration of the DIPA compounds was 5 mg/mL in cherry-flavored syrup administered in a volume of 0.8 mL per dose. The sensory effect were recorded every 5 min for 1 hr.

[2] = Water solubility of 1-dialkylphosphorylalkanes; assay type: physicochemical; settings: water
Text: The DIPA compounds are colorless liquids with a density less than water. These structures differ from those described by Rowsell and Spring U.S. Pat. No. 4,070,496 because '496 structures have their “head” (phosphine oxide group) covered by larger, more lipophilic groups. […] The applicant synthesized these analogs (which are achiral, by contrast to the structures of '496 which are >95% chiral). […] This increased water-solublility is striking (Table 3). […] The DIPA analogs are now mobile in the extracellular fluids and permeate between cells to access nerve endings in the stratum basale.

[3] = system: respiratory syncytial virus (RSV) induced cough; experiment: Mouse cough model of respiratory syncytial virus infection; assay type: in vivo; settings: 1 mg perioral per mouse, 1 hr before count
[4] = target: cloned hTRPM8 channel (Homo sapiens (Human), UniProt Q7Z2W7); experiment: TRPM8 agonist activity, Fluo-8 calcium FLIPR assay (ChanTest); assay type: cell-based; settings: for Relative Potency to L-menthol: L-menthol = 1.0; for TRPM8 Relative Potency: Table 8, DIPA-1-7 = 1; for TRPM8 bioactivity: structural modifications
Procedure: In the first set of data, the potency and in vitro effects of test compounds were evaluated on cloned hTRPM8 channel (encoded by the human TRPM8 gene, expressed in CHO cells) using a Fluo-8 calcium kit and a Fluorescence Imaging Plate Reader (FLIPR^TETRA™) instrument. […] Test solutions were in a HEPES-buffered saline, in 384-well plates, and placed into the FLIPR instrument (Molecular Devices Corporation, Union City, Calif., USA). […] The test cells were Chinese Hamster Ovary (CHO) cells stably transfected with human TRPM8 cDNAs. Concentration-response data were analyzed via FLIPR Control software) and fitted to a Hill equation for the EC50.

[5] = system: rat skin; experiment: Skin irritation tests on rat skin; assay type: in vivo; design: key to Redness after 20 μL applied topically to skin (scale of 0 to +++): scale of 0 to +++; scale of 0 to +++; scale of 0 to +++; scale of 0 to +++; settings: for Redness after 20 μL applied topically to skin (scale of 0 to +++): rat skin; for skin irritancy: undiluted form
[6] = system: oropharynx and esophagus; experiment: Sensory events and cold discomfort of compounds on throat, chest and body; settings: for icy cold / pain in throat: DIPA-1-9 up to 12 mg per unit; for taste: oral cavity / tongue; for sensory side-effects: menthol 5 mg in an orally dissolving tablet
Text: The terms “icy cold” is used to describe this adverse event in the throat.
Most likely, the compound rapidly distributed and activated cold sensations in the eosophageal lining.

[7] = system: acid-induced swallowing movements; experiment: Suppression of acid-induced swallowing movements in the anesthetized rat; assay type: in vivo; settings: for EC50: anesthetized rat; for Relative Potency: suppression of acid-induced swallowing
Text: A principal endogenous irritant in the linings of the upper aerodigestive tract is hydrochloric acid. Acid stimulations of the mucosa of the pharynx will elicit reflex swallowing. […] In a rat animal model, solutions of organic acids such as acetic acid and citric acid were effective in eliciting swallowing [Kajii et al., Sour taste stimulation facilitates reflex swallowing from the pharynx and larynx in the rat Physiology & Behavior 77: 321-325, 2002]. These methods for measuring sensory responses to acid can be adapted for screening the activity of DIPA-1-9. An agent that stimulates swallowing or an agent that suppress the acid challenge may then have utility in relieving dysphagia or the discomfort of heartburn, respectively. Preliminary experiments were conducted at the Pavlov Institute of Physiology, St. Petersburg, Russia, using adult male Wistar rats (see Table 11) and Wei (US 0.2015/0111852 A1). Swallowing movements was identified as the electromyogram activity and could also be visualized as laryngeal movement. Work is in progress to get more results for DIPA-1-9.

[8] = system: anesthetized rat; experiment: In vivo transdermal activity: shaking after topical application to abdominal skin of anesthetized rat; settings: pure compound 20 μL on abdominal skin, counted 40 min
Procedure: Shaking frequency was counted for 40 min after topical application.
The importance of water solubility for permeation was further illustrated in studies on the abdominal skin of anesthetized rat. […] The pharmacokinetic determinants of bioactivity are precise. Thus, for the avoidance of cold discomfort, DIPA-1-9 has to reach the receptors in the stratum basale but not “over-stimulate”.

[9] = Flux through excised hairless mouse skin in vitro; assay type: in vitro ADME
Procedure: Test chemicals dissolved in a gel were placed in an incubation well for 8 hr and the permeated amount of the chemical measured by a high pressure liquid chromatograph equipped with a refractive detector. These tests were conducted by Prof Choi of Chosun University, Korea. The flux of DIPA-1-7 was ˜5× greater than DIPA-1-9.
To further study the skin permeation of DIPA compounds, tests were conducted on the flux of DIPA-1-7 and DIPA-1-9 through excised hairless mouse skin in vitro. These tests were conducted by Prof Choi, Dean of the School of Pharmacy of Chosun University, Korea, and the results shown in (FIG. 5).

[10] = target: TRPM8 (Mus musculus (Mouse), UniProt Q8R4D5); experiment: TRPM8 Fura-2 calcium assay in transfected CHO cells (Andersson et al.); assay type: cell-based; settings: FIG. 4
Procedure: FIG. 4. is a graph of fluorescence response (Δ ratio 340/380) in TRPM8 transfected cells as a function of the logarithm of the concentration of the test compound, expressed in μM, for DIPA-1-7 (black circle), 3,4-7 (open squares), or 3,4-6 (open triangles). The assays were conducted by Andersson et al. of King's College, London, UK, using his methods described in “Modulation of the cold-activated channel TRPM8 by lysophospholipids and polyunsaturated fatty acids. Journal Neuroscience 27 (12): 3347-3355, 2007.
In a second set, tests were made on “mixed” isopropyl-sec-butylphosphorylhexane and heptane analogs described as 3,4-6 and 3,4-7 in Table 2, and results shown in FIG. 4. […] Emission intensity from cells was measured for 90 sec, at every 4 or 5 sec, using excitation wavelengths of 340 and 380 nm and an emission of 520 nm. Fluorescence emission intensity ratios at 340 nm/380 nm excitation (R, in individual cells) were recorded with a FlexStation and the ImageMaster suite of software (PTI, South Brunswick, N.J.). Samples were tested in triplicate at each concentration and the averaged values analyzed by non-linear regression using an a sigmoidal function fit of the points to obtain an estimated EC50 (median effective concentration) (GraphPad Prism software, La Jolla, Calif.). […]

[11] = system: dorsal surface of the tongue; settings: average of 6 subjects; cited from earlier work
[12] = 5 mg/mL in cherry-flavored syrup, ~0.8 mL
[13] = 5 mg/mL in cherry-flavored syrup

Chain of cloned hTRPM8 channel (Q7Z2W7 whole entry): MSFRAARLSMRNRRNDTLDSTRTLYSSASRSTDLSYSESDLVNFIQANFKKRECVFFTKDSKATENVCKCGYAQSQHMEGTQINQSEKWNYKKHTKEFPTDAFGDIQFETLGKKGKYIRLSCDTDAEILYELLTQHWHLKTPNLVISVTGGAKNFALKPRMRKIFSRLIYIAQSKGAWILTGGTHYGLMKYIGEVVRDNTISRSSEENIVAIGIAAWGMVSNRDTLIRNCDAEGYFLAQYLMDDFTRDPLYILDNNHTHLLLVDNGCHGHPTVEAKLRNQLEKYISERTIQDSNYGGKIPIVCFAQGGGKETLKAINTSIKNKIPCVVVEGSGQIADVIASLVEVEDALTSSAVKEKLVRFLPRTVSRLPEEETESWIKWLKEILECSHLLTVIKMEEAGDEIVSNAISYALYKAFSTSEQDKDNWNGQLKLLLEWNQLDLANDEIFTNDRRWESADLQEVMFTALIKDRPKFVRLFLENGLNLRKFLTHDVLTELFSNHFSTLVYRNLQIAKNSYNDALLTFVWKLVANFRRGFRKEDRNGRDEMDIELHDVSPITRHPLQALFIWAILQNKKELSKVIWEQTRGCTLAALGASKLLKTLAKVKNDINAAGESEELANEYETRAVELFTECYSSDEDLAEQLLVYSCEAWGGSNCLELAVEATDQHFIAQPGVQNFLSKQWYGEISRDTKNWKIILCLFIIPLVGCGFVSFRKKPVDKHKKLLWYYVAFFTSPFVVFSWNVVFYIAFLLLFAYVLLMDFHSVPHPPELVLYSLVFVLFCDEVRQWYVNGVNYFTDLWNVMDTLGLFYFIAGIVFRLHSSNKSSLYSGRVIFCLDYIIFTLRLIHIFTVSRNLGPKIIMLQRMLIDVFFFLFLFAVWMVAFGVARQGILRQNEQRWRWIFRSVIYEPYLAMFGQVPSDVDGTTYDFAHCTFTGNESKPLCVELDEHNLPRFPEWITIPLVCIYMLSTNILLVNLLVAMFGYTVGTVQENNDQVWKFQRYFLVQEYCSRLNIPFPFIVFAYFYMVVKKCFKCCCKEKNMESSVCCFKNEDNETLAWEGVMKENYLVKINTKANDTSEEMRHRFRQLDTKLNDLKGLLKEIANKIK
Chain of TRPM8 (Q8R4D5 whole entry): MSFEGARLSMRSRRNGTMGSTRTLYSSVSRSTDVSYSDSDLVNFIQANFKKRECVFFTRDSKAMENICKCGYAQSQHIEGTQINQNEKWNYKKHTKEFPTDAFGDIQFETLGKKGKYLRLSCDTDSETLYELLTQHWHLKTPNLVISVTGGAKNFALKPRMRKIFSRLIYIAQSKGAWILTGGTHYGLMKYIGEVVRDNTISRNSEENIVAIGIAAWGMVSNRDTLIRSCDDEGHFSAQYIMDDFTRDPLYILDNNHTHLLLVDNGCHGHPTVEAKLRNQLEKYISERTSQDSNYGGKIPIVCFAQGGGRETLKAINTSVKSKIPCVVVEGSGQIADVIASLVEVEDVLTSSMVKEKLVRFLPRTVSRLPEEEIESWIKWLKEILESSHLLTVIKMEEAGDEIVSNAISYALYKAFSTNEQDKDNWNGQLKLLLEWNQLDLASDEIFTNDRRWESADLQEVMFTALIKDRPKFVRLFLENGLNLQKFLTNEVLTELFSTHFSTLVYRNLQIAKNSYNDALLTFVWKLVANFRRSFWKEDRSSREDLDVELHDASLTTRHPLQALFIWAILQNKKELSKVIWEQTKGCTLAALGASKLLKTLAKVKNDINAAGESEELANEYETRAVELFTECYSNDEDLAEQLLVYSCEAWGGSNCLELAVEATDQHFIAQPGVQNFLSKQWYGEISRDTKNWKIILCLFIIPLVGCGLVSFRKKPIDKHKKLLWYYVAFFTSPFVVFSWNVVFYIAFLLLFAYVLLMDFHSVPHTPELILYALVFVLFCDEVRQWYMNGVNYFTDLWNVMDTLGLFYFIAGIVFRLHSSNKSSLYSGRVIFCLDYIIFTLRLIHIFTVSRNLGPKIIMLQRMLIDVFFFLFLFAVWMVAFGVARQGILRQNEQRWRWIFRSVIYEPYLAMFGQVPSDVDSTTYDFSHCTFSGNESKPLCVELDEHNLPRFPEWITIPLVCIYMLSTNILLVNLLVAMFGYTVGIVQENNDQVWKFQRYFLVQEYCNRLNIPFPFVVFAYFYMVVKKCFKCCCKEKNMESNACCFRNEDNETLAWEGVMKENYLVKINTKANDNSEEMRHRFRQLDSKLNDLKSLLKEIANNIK

Compound: CCCCCC[P@@](=O)(C(C)C)[C@@H](C)CC [3,4-6, 1-(Isopropyl-sec-butyl)-phosphinoyl-hexane]
- Adverse Taste [1, 12]: 0
- solubility [2]: 25 mg/mL (≈ 108 mM)

Compound: CCCCCCC[P@@](=O)(C(C)C)[C@@H](C)CC [3,4-7, 1-(Isopropyl-sec-butyl)-phosphinoyl-heptane]
- solubility [2]: 20 mg/mL (≈ 81.2 mM)

Compound: COc1ccc2c3c1O[C@H]1[C@@H](O)C=C[C@H]4[C@@H](C2)N(C)CC[C@@]341 [Codeine, reference compound]
- cough frequency [3]: significantly inhibited cough frequency

Compound: CCCCP(=O)(C(C)CC)C(C)CC (stereo not shown) [DAPA-2-4, 1-Di(sec-butyl)-phosphinoyl-butane]
- Relative Potency to L-menthol [4]: 0.3

Compound: CCCCCP(=O)(C(C)CC)C(C)CC (stereo not shown) [DAPA-2-5, 1-di-sec-butyl-phosphorylpentane]
- solubility [2]: 22 mg/mL (≈ 94.7 mM)
- Relative Potency to L-menthol [4]: 2.2

Compound: CCCCCCP(=O)(C(C)CC)C(C)CC (stereo not shown) [DAPA-2-6, 1-Di(sec-butyl)-phosphinoyl-hexane]
- sensory effects [1, 13]: cold, icy cold, and adverse tastes
- Sensation [1, 12]: icy cold
- duration of unpleasant tastes [1]: at least 15 min
- solubility [2]: 8 mg/mL (≈ 32.5 mM)
- Relative Potency to L-menthol [4]: 4.7
- TRPM8 Relative Potency [4]: 0.87
- Redness after 20 μL applied topically to skin (scale of 0 to +++) [5]: +
- skin irritancy [5]: skin irritants
- icy cold / pain in throat [6]: icy cold
- EC50 [7]: 1700 ± 700 µg/mL (≈ 6.9 mM)
- Relative Potency [7]: 0.05

Compound: CCCCCCCP(=O)(C(C)CC)C(C)CC (stereo not shown) [DAPA-2-7, 1-Di(sec-butyl)-phosphinoyl-heptane]
- sensory effects [1, 13]: cold, icy cold, and adverse tastes
- Sensation [1, 12]: icy cold
- duration of unpleasant tastes [1]: at least 15 min
- solubility [2]: < 3 mg/mL
- Relative Potency to L-menthol [4]: 3.4
- TRPM8 Relative Potency [4]: 0.64
- Redness after 20 μL applied topically to skin (scale of 0 to +++) [5]: ++
- skin irritancy [5]: skin irritants
- icy cold / pain in throat [6]: icy cold
- systemic sensations of cold ([6]; higher oral doses (5 mg or more)): sensations of cold on other body surfaces
- EC50 [7]: 200 ± 20 µg/mL (≈ 0.768 mM)
- Comments: duration of effect ([7]; long-lasting): lasting; > ~30 min
- Relative Potency [7]: 0.45

Compound: CCCCCCCCP(=O)(C(C)CC)C(C)CC (stereo not shown) [DAPA-2-8, 1-Di(sec-butyl)-phosphinoyl-octane]
- Sensation [1, 12]: cold
- duration of unpleasant tastes [1]: at least 15 min
- solubility [2]: < 3 mg/mL
- Relative Potency to L-menthol [4]: 2.9
- TRPM8 Relative Potency [4]: 0.71
- EC50 [7]: 560 ± 170 µg/mL (≈ 2.04 mM)
- Relative Potency [7]: 0.16

Compound: CCCCCP(=O)(CC(C)C)CC(C)C [DAPA-3-1, 1-di(iso-butyl) phosphinoyl-pentane]
- Relative Potency to L-menthol [4]: 0.2
- TRPM8 bioactivity [4]: significant loss of bioactivity

Compound: CCC(C)P(=O)(CCC(C)C)C(C)CC (stereo not shown) [DAPA-3-2, 1-Di(sec-butyl) phosphinoyl-3-methyl-butane]
- Relative Potency to L-menthol [4]: 0.9
- TRPM8 bioactivity [4]: significant loss of bioactivity

Compound: CCCCCP(=O)(C(C)C)C(C)C [DIPA-1-5, 1-Di(isopropyl)-phosphinoyl-pentane]
- Relative Potency to L-menthol [4]: 0.7
- shaking after topical application [8]: robust shaking

Compound: CCCCCCP(=O)(C(C)C)C(C)C [DIPA-1-6, 1-Di(isopropyl)-phosphinoyl-hexane]
- Relative Potency to L-menthol [4]: 1.6
- shaking after topical application [8]: robust shaking
- icy cold / pain in throat [6]: icy cold

Compound: CCCCCCCP(=O)(C(C)C)C(C)C [DIPA-1-7, 1-Di(isopropyl)-phosphinoyl-heptane]
- sensory effects [1, 13]: cold, icy cold, and adverse tastes; also recorded: icy pain in the back of the throat
- Sensation [1, 12]: painful cold
- duration of unpleasant tastes [1]: at least 15 min
- penetration of excised skin [9]: very active in penetrating the excised skin
- flux relative to DIPA-1-9 ([9]; gel, 8 hr): ~5 ×
- decrease in rate of permeation by added standard enhancers ([9]; propylene glycol-oleyl alcohol (50:50) or Lauroglycol 90 added to gel): ~50%
- solubility [2]: > 300 mg/mL
- Relative Potency to L-menthol [4]: 5.4
- TRPM8 Relative Potency [4]: 1
- shaking after topical application [8]: vigorous shaking; also recorded: robust shaking
- potency for activation of TRPM8 relative to 3,4-6 [10]: ~10 ×
- potency for activation of TRPM8 relative to 3,4-7 [10]: ~5 ×
- icy cold / pain in throat [6]: icy cold
- cold in the chest / behind sternum ([6]; in vivo): spreads behind the sternum, into the chest
- taste [6]: this taste is present
- EC50 [7]: 820 ± 80 µg/mL (≈ 3.53 mM)
- Relative Potency [7]: 0.11

Compound: CCCCCCCCP(=O)(C(C)C)C(C)C [DIPA-1-8, 1-Di(isopropyl)-phosphinoyl-octane]
- sensory effects [1, 13]: cold, icy cold, and adverse tastes
- Sensation [1, 12]: cold
- duration of unpleasant tastes [1]: at least 15 min
- solubility [2]: > 300 mg/mL
- Relative Potency to L-menthol [4]: 5.4
- taste [6]: this taste is present

Compound: CC(C)[C@@H]1CC[C@@H](C)C[C@H]1O [Menthol, reference compound]
- Threshold, μg (cooling on tongue) [11]: 0.25 µg
- sensory side-effects [6]: chest discomfort

Compound: O=C1NC(c2cccc([N+](=O)[O-])c2)=CCN1c1ccccc1O [icilin, reference compound]
- sensory side-effects [6]: did not produce cooling in the chest or the desired sensations on the throat
